Reference: patent publication US20240115545A1, “PHARMACEUTICAL COMPOSITION CONTAINING B-LAPACHONE AS ACTIVE INGREDIENT FOR PREVENTION OR TREATMENT OF CHOLESTATIC LIVER DISEASE” (CUROME BIOSCIENCES CO., LTD., priority 2020, published 2024)

What was measured:
[1] = system: DDC-induced cholestatic liver disease mice; assay: H&E histology of portal vein and bile duct lesions, preventive β-lapachone in DDC-induced cholestatic liver disease mice; type: in vivo
Experimental: DDC-induced cholestatic liver disease mouse animal models were prepared according to the method of Elisa Pose et al. by using 8-week-old C57BL/6 male mice (Samtako, Korea). Briefly, cholestatic liver disease was induced by feeding a standard rodent diet supplemented with 0.1% (w/w) DDC for 7 or 14 days. The 12-hour light and dark cycle was maintained and animals were allowed to free access to water. The standard rodent diet included medium wheat, wheat, corn, and corn gluten flour, and soybean oil (14% protein). All animal related procedures were reviewed and approved by the Institutional Animal Care and Use Committee of Korea Research Institute of Bioscience and Biotechnology (KRIBB), KRIBB-AEC-20165). The tissue staining of the cholestatic liver disease animal models was measured through H&E staining (basic tissue staining), Sirius Red staining (collagen staining), and Masson's trichrome staining (collagen, cytoplasm, muscle fibers, etc.), and the tissue staining was measured by a skilled researcher. After the mice were fed a diet containing 0.1% DDC for 14 days, tissue staining was performed for inflammation, fibrosis, and adhesion molecules around the portal vein, and the results are shown in FIG. 1. […]

[2] = system: DDC-induced cholestatic liver disease mice; assay: Blood indexes (ALT, AST, ALP, bilirubin), DDC and β-lapachone given together for 7 days (Example 3.1); type: in vivo
Experimental: DDC-induced cholestatic liver disease mouse animal models were prepared according to the method of Elisa Pose et al. by using 8-week-old C57BL/6 male mice (Samtako, Korea). Briefly, cholestatic liver disease was induced by feeding a standard rodent diet supplemented with 0.1% (w/w) DDC for 7 or 14 days. The 12-hour light and dark cycle was maintained and animals were allowed to free access to water. The standard rodent diet included medium wheat, wheat, corn, and corn gluten flour, and soybean oil (14% protein). All animal related procedures were reviewed and approved by the Institutional Animal Care and Use Committee of Korea Research Institute of Bioscience and Biotechnology (KRIBB), KRIBB-AEC-20165).
To investigate the effect of β-lapachone (BL) on the occurrence of cholestatic liver disease, both […] and β-lapachone were administered to mice to characterize animal models.
After 8-week-old C57BL/6 male mice (Samtako, Korea) were divided into each group (=6), the mice were fed a diet with normal (vehicle), control (DDC), DDC+β-lapachone 20 mg/kg, DDC+β-lapachone 40 mg/kg, DDC+β-lapachone 80 mg/kg, DDC+β-lapachone 100 mg/kg, and positive control DDC+ursodeoxycholic acid 100 mg/kg, and DDC+obeticholic acid 30 mg/kg (total 7 days). After 7 days of treatment, the mice were sacrificed and then the blood was collected from the heart. Thereafter, the levels of alanine aminotransferase (ALT), aspartate aminotransferase (AST), alkaline phosphatase (ALP), and bilirubin, which are blood indexes, were analyzed, and shown in FIG. 4.

[3] = system: DSS-induced inflammatory bowel disease mice; assay: Survival rate, body weight and colitis score in DSS-induced acute colitis mice (Example 6.1); type: in vivo; conditions: for mice died: 14th day of the experiment (DSS alone 70%)
Experimental: Dextran sodium sulfate (DSS)-induced acute colitis mouse models were constructed using 8-week-old C57BL/6 female mice (Samtako, Korea).
After 8-week-old C57BL/6 female mice (Samtako, Korea) were divided into each group (=10), each experimental group was fed a standard rodent diet supplemented with 3% (w/w) DSS in drinking water for the first 5 days to induce acute colitis and orally administered control (vehicle), β-lapachone 40 mg/kg, and β-lapachone 80 mg/kg for 14 days.
All animal-related procedures were discussed and approved by the Institutional Animal Care and Use Committee of the Hanyang University. The survival rate over time is shown in FIG. 9, and the change rate in body weight of mice in each experimental group was measured and shown in FIG. 10A. The fecal occult bleeding per rectum, total bleeding loss, and fecal concentration were measured daily.

[4] = system: LX-2 hepatic stellate cell line; assay: Fibronectin and α-SMA protein expression in TGF-β1-treated LX-2 hepatic stellate cells (immunoblotting); type: cell-based; conditions: LX-2 cells, 1 ng/ml TGF-β1 + 0.5 or 1 μM β-lapachone, 24 hours
Experimental: Considering that inflammation and fibrosis of bile ducts cause cirrhosis in cholestatic liver disease, experiments were performed on the LX-2 hepatic stellate cell line model by using the method of Takaaki Higashi et al. (2017). The LX-2 cell line was subcultured in DMEM containing 10% FBS, 2 mM glutamine, 100 U penicillin, and 0.1 mg/ml streptomycin. The LX-2 cell line was added into a 6-well plate at a density of 16×10^4 cells/well, and cultured in DMEM containing 1 ng/ml TGF-β1, 1 ng/ml TGF-β1+0.5 μM β-lapachone or 1 ng/ml TGF-β1+1 μM β-lapachone for 24 hours. Thereafter, the protein expression levels of the fibrosis-related genes fibronectin and α-SMA of the obtained cells were measured by protein immunoblotting according to a conventional method known in the art.

[5] = 20, 40, 80, 100 mg/kg in diet with DDC, depending on the concentration

## CC1(C)CCC2=C(O1)c1ccccc1C(=O)C2=O [β-lapachone]
[1]; 80 mg/kg (BL80) compared with 40 mg/kg (BL40)
  concentration dependence of lesion reduction of portal vein and bile ducts (H&E): reduced the lesions of the DDC-treated portal vein and bile ducts depending on the concentration thereof
[1]; DDC-BL40 and DDC-BL80 (40 and 80 mg/kg in diet from 3 days before DDC, total 17 days; DDC 14 days) vs DDC-vehicle
  lesions around the portal vein (PV) and bile ducts (H&E): significant lesion reductions
[2]; [5]
  ALP in the blood increased by DDC: inhibited
  ALT in the blood increased by DDC: inhibited
  AST in the blood increased by DDC: inhibited
  bilirubin in the blood increased by DDC: inhibited
[2]; vs ursodeoxycholic acid 100 mg/kg and obeticholic acid 30 mg/kg
  effect on blood indexes compared with positive controls: excellent effects compared with ursodeoxycholic acid (UDCA) and obeticholic acid (OCA)
[3]; 40 mg/kg orally for 14 days
  mice died: 50%
[3]; 80 mg/kg orally (DSS alone reduced to 75% on Day 8)
  body weight recovered, relative to initial body weight: up to 90%
[3]; 80 mg/kg orally for 14 days
  mice died: 20%
[3]; 40 and 80 mg/kg orally, 14 days
  colitis score: reduced depending on the treatment concentration
[3]; groups treated with β-lapachone 40 and 80 mg/kg orally
  body weight reduction by DSS: inhibited
[4]
  protein expression level of fibronectin increased by TGF-β1: reduced depending on the concentration
  protein expression level of α-SMA increased by TGF-β1: reduced depending on the concentration
